Measurements taken from publication PMC12667295, “A surrogate barrier model for high-throughput blood-brain barrier permeability prediction: integrating LLC-PK1-MOCK/MDR1 Cells and lysosomal trapping correction” (Drug Delivery, 2025).
Several values for one entry are separate records, joined by “and”; a condition that tells them apart may be missing. Identical values can stand only once. Like-named read-outs stand apart in the source and are kept apart here.

What was measured:
[1] = cited from earlier work
LLC-PK1 MOCK cells = assay: Bidirectional transport across LLC-PK1 MOCK monolayer (Transwell); conditions: LLC-PK1 MOCK, 2 µM, 2 h, mean ± s, n = 3; BLQ = below 2 nM;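 note: compound quantified by LC-MS/MS in donor and receiver wells, efflux ratio as B-A over A-B Papp, recovery relative to initial donor amount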
Method: (§3) Cells were passaged at 80−90% confluence (every 2−3 days) using trypsin-EDTA solution. […] The culture medium was replaced every other day, including 200 µL culture medium in the apical and 850 µL cell culture medium in the basolateral side. LLC-PK1 MOCK cells were used at passages of 3−30. LLC-PK1-MDR1 cells were cultured and passaged in the same manner as LLC-PK1 cells except at the density of 1 × 10^4 cells per well. LLC-PK1-MDR1 cells were used at passages of 3−25. For LLC-PK1 MOCK cells and LLC-PK1-MDR1 cells, the experiments were performed on the 4th and 7th day after seeding.
(§4) Samples were collected from the donor well at the start of the incubation (50 µL) as C0, and from the donor and receiver wells at the end of the incubation (50 µL). All samples were stored at - 40 °C for LC-MS/MS analysis.
(§5) Bidirectional transport experiments. […] The transwell experiments were conducted following above-mentioned procedure. […] When the recovery rate of the tested drug is below 80%, the possibility of intracellular accumulation should be considered. The polycarbonate (PC) membrane where cells are grown should be carefully peeled off from the cell culture medium and placed in 100 µL of HBSS buffer solution. […] The process was carried out on ice to prevent heat-induced degradation, applying a power in the range of 300 W for a total duration of 20 minutes. Thereafter, a quantitative analysis of the intracellular drug was conducted, and the drug recovery rate was recalculated based on this analysis.
(§6) The apparent permeability coefficient (Papp, cm/s) was calculated for each transport direction, A-B and B-A, using the following equation: Papp=dQ/dt×1/A×C0 where dQ/dt is the permeation rate (µmol/s), A is the surface area of the insert (0.33 cm^2, Corning), and C0 is the initial donor concentration (µM).
(§7) The efflux ratio (ER) is calculated as the ratio of Papp (B-A)/Papp (A-B). Recovery=TRcumrf+Cdf×VD/Cdi×VD×100% Where TRcumrf is the cumulative transported mass in the receiver chamber at the end of the incubation (nmol), Cdf is the concentration of the drug in the donor chamber at the end of the incubation (μM), VD is the volume of the donor chamber (mL), and Cdi is the initial concentration of the drug in the donor chamber (μM).
(§8) The method of the bidirectional transport experiment was the same as before.

P-gp (human MDR1) [2] = assay: in vitro; conditions: pig, LLC-PK1, pH 7.4
Method: (§9) The overexpression and functional activity of P-glycoprotein (P-gp) in the LLC-PK1-MDR1 cells were rigorously validated through multiple methods.
as §3
(§10) Monitoring permeability of positive control drugs. […] Samples were collected from the donor well at the start of the incubation (50 µL) as C0, and from the donor and receiver wells at the end of the incubation (50 µL). All samples were stored at - 40 °C for LC-MS/MS analysis.
as §5, §6, §7, §8

P-gp (human MDR1) [3] = assay: Bidirectional transport across LLC-PK1-MDR1 monolayer stably expressing human MDR1 (P-gp) (Transwell); conditions: pig; for efflux ratio at 2 h, 2 µM: LLC-PK1, pH 7.4, ER, LLC-PK1-MDR1, Papp (B-A)/Papp (A-B);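 for all read-outs here: 2 h incubation at 37 °C, receiver HBSS with 10 mM Hepes plus 1% BSA, LC-MS/MS of donor and receiver, recovery as receiver plus donor amount over initial donor amount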
Method: as §9, §3, §10, §5, §6, §7, §8

in vitro [4] = conditions: pig, LLC-PK1 MOCK cell monolayer (Transwell), pH 7.4
Method: as §3, §4, §5, §6, §7, §8

[5] = Bidirectional transport across LLC-PK1 MOCK monolayer (Transwell); conditions: pig; for recovery at 2 h, 2 µM: LLC-PK1 MOCK cell monolayer (Transwell), pH 7.4, Recovery after correction of intracellular accumulation data, cell lysate included, mean±SD, n=3;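 for all read-outs here: compound quantified by LC-MS/MS in donor and receiver wells, efflux ratio as B-A over A-B Papp, recovery relative to initial donor amount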
Method: as §3, §4, §5, §6, §7, §8

LLC-PK1-MDR1 cells [6] = assay: Bidirectional transport across LLC-PK1-MDR1 monolayer stably expressing human MDR1 (P-gp) (Transwell);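 note: 2 h incubation at 37 °C, receiver HBSS with 10 mM Hepes plus 1% BSA, LC-MS/MS of donor and receiver, recovery as receiver plus donor amount over initial donor amount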
Method: as §9, §3, §10, §5, §6, §7, §8

LLC-PK1-MDR1 cells [7] = system: LLC-PK1-MDR1 cells
Method: as §9, §3, §10, §5, §6, §7, §8

[8] = LLC-PK1 MOCK/MDR1 monolayer model, results stated for both cell lines jointly; conditions: pig, LLC-PK1 MOCK and LLC-PK1-MDR1 cell monolayers (Transwell)
Method: Monitoring of TEER value and LY permeability. After the LLC-PK1 MOCK/MDR1 cells attach to the Transwell insert, TEER (Transepithelial Electrical Resistance) values were continuously recorded using a cell resistance meter (Beijing JINGONGHONGTAI Technology Co., Ltd). These TEER values represent the mean from six individual inserts (n = 6) measured per group. The TEER measurement and transport experiment were conducted at 37 °C, using a heating plate to maintain the required temperature. The transmembrane resistance was calculated using the formula TEER = (Rtotal-Rblank) × Aarea, where Rblank represents the TEER of the blank chamber.
The permeability of the Lucifer Yellow CH Dipotassium Salt (LY, 100 μM) across the monolayers was measured in apical-to-basolateral direction to monitor the integrity of the cell monolayer.
Bidirectional transport experiments. […] The transwell experiments were conducted following above-mentioned procedure.

in vivo = conditions: rat
Description: In vivo unbound brain distribution data (Kp,uu,Brain) for 16 drugs and total brain distribution data (Kp,Brain) for 16 drugs was acquired from literature. […] For each tested compound, fifteen rats were randomly divided into five groups of three rats each. […] The time of execution of the rats by CO2 inhalation after administration was optimized according to the in vivo elimination rate to achieve five concentrations of different time points. After the rats were euthanized, cardiac puncture was performed immediately to remove as much whole blood as possible (~7 ml) from the systemic circulation (Quantitatively aliquot 0.2 ml of whole blood for the determination of drug concentration in plasma). Afterwards, the brain tissue was collected immediately and rinsed repeatedly with ice-cold saline 3 times. Then, the surface saline was blotted dry with clean filter paper to remove as much residual drug in the blood vessels as possible. Plasma samples were prepared by centrifugation of the blood samples at 2,500 g for 10 minutes at 4 °C. All brain samples were homogenized by adding 4-fold volume water. All samples were stored at -40 °C before LC-MS/MS analysis. […] The brain tissue partition coefficient (Kp, brain) and brain-to-plasma unbound drug partition ratio (Kp,uu, brain) are calculated according to the following formulas, respectively: Kp,brain=AUC(0−∞,brain)/AUC(0−∞,plasma)Kp,uu,brain=Kp,brain×(fu,tissue/fu,plasma)
Free brain-to-plasma distribution coefficients (Kp,uu,brain) of 41 drugs. Brain distribution coefficients (Kp,uu,brain) were calculated for 41 drugs. […] Plasma and brain concentration-time profiles were generated, and AUC(0-t) values for both matrices were calculated using WinNolin 8.1. Kp,brain was derived as the ratio of brain-to-plasma AUC(0-t).
Kp,uu,brain values were computed by normalizing Kp,brain to unbound fractions (fu,plasma and fu,brain).

in vitro [9] = conditions: rat, brain homogenate
Method: (§1) Stocks (10 mM) of test compounds were diluted to 5 μM with plasma or tissue homogenate and dialyzed at 37 °C for 6 hours in a shaking incubator. After incubation aliquots of both plasma or tissue homogenate and buffer from the device were taken and added to equal volumes of blank buffer and plasma or tissue homogenate respectively. Samples were then diluted in acetonitrile containing an internal standard prior to centrifugation and analysis of the supernatants by LC-MS/MS. The fu, plasma was calculated using Equation 1:(1) fu,plasma=Concbuffer chamber/Concsample chamber
Rat fraction unbound in brain (fu, brain) was determined as the ratio of concentration in buffer to that in brain.
(§2) Unbound fractions of test drugs in plasma (fu,plasma) and brain tissue (fu,brain). For compounds with existing rat plasma or brain protein-binding data from literature or internal studies, values were directly adopted.

in vitro [10] = conditions: rat, plasma
Method: as §1, §2

[11] = design: method as in not given; conditions: stated without method; ref not given; cited from earlier work
[12] = LLC-PK1, pH 7.4, Papp A-B, LLC-PK1-MDR1, 2 µM, 2 h, mean ± s, n = 3
[13] = LLC-PK1, pH 7.4, Papp A-B, LLC-PK1 MOCK, 2 h, mean ± s, n = 3, BLQ = below 2 nM
[14] = pH 7.4, Recovery after cell lysate extraction, intracellular drug included
[15] = pH 7.4, Recovery, bidirectional transport, uncorrected
[16] = pH 7.4, with bafilomycin A1 1 µM (inhibitor of lysosomal function), Recovery, with 1 µM Bafilomycin A1, bidirectional transport

| Compound | recovery at 2 h, 2 µM (P-gp (human MDR1) [2]) [%] | Papp B→A at 2 h, 2 µM (P-gp (human MDR1) [3]; LLC-PK1, pH 7.4) [×10⁻⁶ cm/s] | efflux ratio at 2 h, 2 µM (P-gp (human MDR1) [3]) | Papp A→B at 2 h, 2 µM (P-gp (human MDR1) [3]; [12]) [×10⁻⁶ cm/s] | recovery at 2 h, 2 µM (in vitro [4]) [%] | Papp B→A at 2 h, 2 µM ([5]; LLC-PK1, pH 7.4) [×10⁻⁶ cm/s] | Papp A→B at 2 h, 2 µM [5, 13] [×10⁻⁶ cm/s] | recovery (LLC-PK1-MDR1 cells [7]) | recovery at 2 µM [8, 14] [%] | recovery at 2 µM [8, 15] [%] | recovery at 2 µM [8, 16] [%] | fraction unbound at 6 h, 5 µM (in vitro [9]) | fraction unbound at 6 h, 5 µM (in vitro [10]) | recovery at 2 h, 2 µM ([5]; B-A, LLC-PK1 MOCK) [%] | pKa [11] | further results |
| --- | --- | --- | --- | --- | --- | --- | --- | --- | --- | --- | --- | --- | --- | --- | --- | --- |
| C[C@H]1O[C@@H](O[C@H]2[C@@H](O)C[C@H](O[C@H]3[C@@H](O)C[C@H](O[C@H]4CC[C@@]5(C)[C@H](CC[C@@H]6[C@@H]5C[C@@H](O)[C@]5(C)[C@@H](C7=CC(=O)OC7)CC[C@]65O)C4)O[C@@H]3C)O[C@@H]2C)C[C@H](O)[C@@H]1O [Digoxin] |  | 7.79 ± 0.91 |  |  | 95 ± 5.24 | 1.75 ± 0.07 | 1.91 ± 0.13 | 109 ± 16% |  |  |  |  |  |  |  | Papp at 2 h, 2 µM ([5]; LLC-PK1, pH 7.4): 2.17 ×10⁻⁶ cm/s; Papp at 2 h, 2 µM ([5]; LLC-PK1, pH 7.4, with tariquidar 5 µM (P-gp inhibitor)): 2.1 ×10⁻⁶ cm/s; increase in apical-to-basolateral (A→B) permeability (LLC-PK1-MDR1 cells [6]; LLC-PK1-MDR1, with 5 μM tariquidar vs without): 3.97 fold; Papp A→B at 2 h, 2 µM (P-gp (human MDR1) [3]; LLC-PK1, pH 7.4): 1.15 ± 0.28 ×10⁻⁶ cm/s |
| Fc1ccc([C@@H]2CCNC[C@H]2COc2ccc3c(c2)OCO3)cc1 [Paroxetine] |  | 10.9 ± 0.35 | 2.11 | 5.15 ± 0.55 | 54.1 ± 1.86 | 14.8 ± 0.57 | 7.65 ± 0.2 |  | > 80 | < 80 | 80 to 120 | < 0.01 | 0.021 | 92.7 ± 4.03 | > 7 | Kp (in vivo; Kp,uu,Brian): 1.57; Kp, Brain ([1]; ref O’Brien et al. [2012]): 3.307; efflux ratio at 2 h, 2 µM ([5]; LLC-PK1, pH 7.4, ER, LLC-PK1 MOCK, Papp (B-A)/Papp (A-B)): 1.93; recovery at 2 h, 2 µM ([5]; A-B, LLC-PK1 MOCK): 97.6 ± 1.99% |
| CCN(CC)CCNC(=O)c1c(C)[nH]c(/C=C2\C(=O)Nc3ccc(F)cc32)c1C [Sunitinib] |  | 21.8 ± 1.08 |  | 2.23 ± 0.21 |  | 6.21 ± 0.2 | 9.31 ± 0.74 | 116% and 97% | > 80 | < 80 | 80 to 120 | < 0.01 | 0.017 | 89.2 ± 8.92 | > 7 | Kp (in vivo; SD, iv, 1 mg/kg, Kp, Brain): 0.965; Kp (in vivo; SD, iv, 1 mg/kg, Kp,uu,Brian): 0.563 |

Further lines, with some results ahead:

| recovery at 2 h, 2 µM (P-gp (human MDR1) [2]) [%] | Papp B→A at 2 h, 2 µM (P-gp (human MDR1) [3]; LLC-PK1, pH 7.4) [×10⁻⁶ cm/s] | efflux ratio at 2 h, 2 µM (P-gp (human MDR1) [3]) | Papp A→B at 2 h, 2 µM (P-gp (human MDR1) [3]; [12]) [×10⁻⁶ cm/s] | recovery at 2 h, 2 µM (in vitro [4]) [%] | Papp B→A at 2 h, 2 µM ([5]; LLC-PK1, pH 7.4) [×10⁻⁶ cm/s] | Papp A→B at 2 h, 2 µM [5, 13] [×10⁻⁶ cm/s] | recovery (LLC-PK1-MDR1 cells [7]) | recovery at 2 µM [8, 14] [%] | recovery at 2 µM [8, 15] [%] | recovery at 2 µM [8, 16] [%] | fraction unbound at 6 h, 5 µM (in vitro [9]) | fraction unbound at 6 h, 5 µM (in vitro [10]) | recovery at 2 h, 2 µM ([5]; B-A, LLC-PK1 MOCK) [%] | Compound | pKa [11] | further results |
| --- | --- | --- | --- | --- | --- | --- | --- | --- | --- | --- | --- | --- | --- | --- | --- | --- |
| 83.3 ± 5.67 | 0.45 ± 0.05 | 0.81 | 0.55 ± 0.1 | 85.8 ± 4.58 |  |  |  |  |  |  |  |  |  | CN(Cc1cnc2nc(N)nc(N)c2n1)c1ccc(C(=O)N[C@@H](CCC(=O)O)C(=O)O)cc1 [Methotrexate] |  | Kp, Brain ([1]; ref Fridén [2009]): 0.004; Kp,uu,Brian ([1]; ref Fridén [2009]): 0.006; Papp A-B (LLC-PK1 MOCK cells): BLQ; Papp B-A (LLC-PK1 MOCK cells): BLQ |
| 116 ± 1.08 |  |  |  | 114 ± 8.95 | 24 ± 1.39 | 30.1 ± 3.88 |  |  |  |  |  |  |  | COCCc1ccc(OCC(O)CNC(C)C)cc1 (stereo not shown) [Metoprolol] |  | Papp A→B at 2 h, 2 µM ([5]; LLC-PK1, pH 7.4, Papp (A-B), LLC-PK1 MOCK, positive control drugs run with each batch (n = 15)): > 20 ×10⁻⁶ cm/s; Papp A-B (LLC-PK1-MDR1 cells [6]; LLC-PK1-MDR1, positive control drugs run with each batch (n = 15), 2 µM): exceeded 20 × 10^−⁶ cm/s |
